What was measured:
Type in all cases: in vivo
[1] = test system: diarrhea caused by a chemotherapeutic agent in Balb/c mice; assay: Examples 382-405 (Table 7): various administration modes of the CDK inhibitor, relief of diarrhea caused by a chemotherapeutic agent; settings: cycle 8 days
Text: Balb/c mice were fed for 1 week, and then divided into groups. The experiment was divided into a control group, a chemotherapeutic agent group, CDK inhibitor groups (including an oral administration group of a CDK inhibitor, an intraperitoneal injection group of a CDK inhibitor, an intramuscular injection group of a CDK inhibitor, a local administration group of a CDK inhibitor), each of which comprised 10 mice, to perform the administration experiment, for which the administration dosage, mode, time and frequency were shown in Table 7. The control group: being administered with the same solvent as that used in the CDK inhibitor group (the time and mode were shown in Table 7), and then being injected/intragastrically administered with the same solvent as that used in the chemotherapeutic agent group (the administration mode was shown in Table 7): the chemotherapeutic agent group: being administered with the same solvent as that used in the CDK inhibitor group (the time and mode were shown in Table 7), and then being injected/intragastrically administered with the chemotherapeutic agent (the type, administration mode and dosage were shown in Table 7): the oral administration group of the CDK inhibitor: being intragastrically administered with the CDK inhibitor (the time was shown in Table 7), and then being administered with the chemotherapeutic agent (the mode and dosage were shown in Table 7): the intraperitoneal injection group of the CDK inhibitor: being intraperitoneally injected with the CDK inhibitor (the time was shown in Table 7), and then being administered with the chemotherapeutic agent (the mode and dosage were shown in Table 7): the intramuscular injection group of the CDK inhibitor: being intramuscularly injected with the CDK inhibitor (the time was shown in Table 7), and then being administered with the chemotherapeutic agent (the mode and dosage were shown in Table 7); and the local administration group of the CDK inhibitor: the hair on the abdomen of mice was shaved (about 2 cm*2 cm), being applied with the CDK inhibitor (the time was shown in Table 7), and then being administered with the chemotherapeutic agent (the mode and dosage were shown in Table 7).
(§1) The diarrhea grading of mice was observed and recorded every day.

[2] = test system: diarrhea caused by a chemotherapeutic agent in Balb/c mice; assay: Examples 230-271 (Table 4): oral CDK inhibitor, relief of diarrhea caused by a chemotherapeutic agent
Text: Balb/c mice were fed for 1 week, and then divided into groups. The experiment was divided into a control group, a chemotherapeutic agent group, and a CDK inhibitor group, each of which comprised 10 mice, to perform the administration experiment, for which the administration dosage, mode, time and frequency were shown in Table 4. The control group: being intragastrically administered with the same solvent as that used in the CDK inhibitor group (the time was shown in Table 4), and then being injected/intragastrically administered with the same solvent as that used in the chemotherapeutic agent group (the administration mode was shown in Table 4): the chemotherapeutic agent group: being intragastrically administered with the same solvent as that used in the CDK inhibitor group (the time was shown in Table 4), and then being injected/intragastrically administered with the chemotherapeutic agent (the type, administration mode and dosage were shown in Table 4): the CDK inhibitor group: being intragastrically administered with the CDK inhibitor (the time was shown in Table 4), and then being administered with the chemotherapeutic agent (the mode and dosage were shown in Table 4).
as §1

[3] = test system: Chemotherapeutic agent-caused diarrhea models of Balb/c mice; assay: Examples 1-229 (Table 3): oral CDK inhibitor, relief of diarrhea caused by a chemotherapeutic agent;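 further: percent of treated mice whose diarrhea grade fell below chemotherapy-group average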

CC(=O)c1c(C)c2cnc(Nc3ccc(N4CCNCC4)cn3)nc2n(C2CCCC2)c1=O [Palbociclib]
Relative remission rate of other administration mode ([1]; Example 382, Docetaxel (DTX) intraperitoneal injection 10 mg/kg single, CDK inhibitor intraperitoneal injection 150 mg/kg single, 0.5 h before): 10% | Relative remission rate of oral administration ([1]; Example 382, Docetaxel (DTX) intraperitoneal injection 10 mg/kg single, CDK inhibitor oral 150 mg/kg single, 0.5 h before): 40% | Relative remission rate of other administration mode ([1]; Example 383, Docetaxel (DTX) intraperitoneal injection 10 mg/kg single, CDK inhibitor intraperitoneal injection 150 mg/kg single, 4 h before): 10% | Relative remission rate of oral administration ([1]; Example 383, Docetaxel (DTX) intraperitoneal injection 10 mg/kg single, CDK inhibitor oral 150 mg/kg single, 4 h before): 40% | Relative remission rate of other administration mode ([1]; Example 384, Docetaxel (DTX) intraperitoneal injection 10 mg/kg single, CDK inhibitor intraperitoneal injection 150 mg/kg single, 8 h before): 10% | Relative remission rate of oral administration ([1]; Example 384, Docetaxel (DTX) intraperitoneal injection 10 mg/kg single, CDK inhibitor oral 150 mg/kg single, 8 h before): 50% | Relative remission rate of other administration mode ([1]; Example 385, Docetaxel (DTX) intraperitoneal injection 10 mg/kg single, CDK inhibitor intraperitoneal injection 150 mg/kg single, 12 h before): 20% | Relative remission rate of oral administration ([1]; Example 385, Docetaxel (DTX) intraperitoneal injection 10 mg/kg single, CDK inhibitor oral 150 mg/kg single, 12 h before): 70% | Relative remission rate of other administration mode ([1]; Example 386, Docetaxel (DTX) intraperitoneal injection 10 mg/kg single, CDK inhibitor intraperitoneal injection 150 mg/kg single, 24 h before): 10% | Relative remission rate of oral administration ([1]; Example 386, Docetaxel (DTX) intraperitoneal injection 10 mg/kg single, CDK inhibitor oral 150 mg/kg single, 24 h before): 50% | Relative remission rate of other administration mode ([1]; Example 403, Gemcitabine (GEM) intravenous injection 120 mg/kg single, CDK inhibitor intravenous injection 200 mg/kg single, 12 h before): 20% | Relative remission rate of oral administration ([1]; Example 403, Gemcitabine (GEM) intravenous injection 120 mg/kg single, CDK inhibitor oral 200 mg/kg single, 12 h before): 60% | Relative remission rate ([2]; Example 230, Doxorubicin (Dox) intraperitoneal injection 10 mg/kg single, CDK inhibitor oral 150 mg/kg single, 0.5 h before, cycle 12 days): 50% | Relative remission rate ([2]; Example 231, Doxorubicin (Dox) intraperitoneal injection 10 mg/kg single, CDK inhibitor oral 150 mg/kg single, 4 h before, cycle 12 days): 70% | Relative remission rate ([2]; Example 232, Doxorubicin (Dox) intraperitoneal injection 10 mg/kg single, CDK inhibitor oral 150 mg/kg single, 8 h before, cycle 12 days): 70% | Relative remission rate ([2]; Example 233, Doxorubicin (Dox) intraperitoneal injection 10 mg/kg single, CDK inhibitor oral 150 mg/kg single, 12 h before, cycle 12 days): 80% | Relative remission rate ([2]; Example 234, Doxorubicin (Dox) intraperitoneal injection 10 mg/kg single, CDK inhibitor oral 150 mg/kg single, 24 h before, cycle 12 days): 50% | Relative remission rate ([2]; Example 235, Doxorubicin (Dox) intraperitoneal injection 10 mg/kg single, CDK inhibitor oral 150 mg/kg single, 48 h before, cycle 12 days): 0% | Relative remission rate ([2]; Example 249, Methotrexate (MTX) oral administration 400 mg/kg single, CDK inhibitor oral 125 mg/kg single, 4 h before, cycle 7 days): 60% | Relative remission rate ([2]; Example 250, Methotrexate (MTX) oral administration 400 mg/kg single, CDK inhibitor oral 125 mg/kg single, 24 h before, cycle 7 days): 60% | Relative remission rate ([2]; Example 260, Cytarabine (Ara-C) intravenous injection 600 mg/kg single, CDK inhibitor oral 150 mg/kg single, 6 h before, cycle 8 days): 60% | Relative remission rate ([2]; Example 271, Vinorelbine (NVB) intraperitoneal injection 10 mg/kg single, CDK inhibitor oral 200 mg/kg single, 12 h before, cycle 7 days): 70% | Relative remission rate (%) ([3]; Example 1, Fluorouracil (5-Fu) intraperitoneal injection 125 mg/kg single, CDK inhibitor oral 150 mg/kg single 0.5 h before, cycle 10 days): 20% | Relative remission rate (%) ([3]; Example 2, Fluorouracil (5-Fu) intraperitoneal injection 125 mg/kg single, CDK inhibitor oral 150 mg/kg single 1 h before, cycle 10 days): 20% | Relative remission rate (%) ([3]; Example 3, Fluorouracil (5-Fu) intraperitoneal injection 125 mg/kg single, CDK inhibitor oral 150 mg/kg single 2 h before, cycle 10 days): 30% | Relative remission rate (%) ([3]; Example 4, Fluorouracil (5-Fu) intraperitoneal injection 125 mg/kg single, CDK inhibitor oral 150 mg/kg single 3 h before, cycle 10 days): 40% | Relative remission rate (%) ([3]; Example 5, Fluorouracil (5-Fu) intraperitoneal injection 125 mg/kg single, CDK inhibitor oral 150 mg/kg single 4 h before, cycle 10 days): 40% | Relative remission rate (%) ([3]; Example 6, Fluorouracil (5-Fu) intraperitoneal injection 125 mg/kg single, CDK inhibitor oral 150 mg/kg single 5 h before, cycle 10 days): 50% | Relative remission rate (%) ([3]; Example 7, Fluorouracil (5-Fu) intraperitoneal injection 125 mg/kg single, CDK inhibitor oral 150 mg/kg single 6 h before, cycle 10 days): 50% | Relative remission rate (%) ([3]; Example 8, Fluorouracil (5-Fu) intraperitoneal injection 125 mg/kg single, CDK inhibitor oral 150 mg/kg single 7 h before, cycle 10 days): 60% | Relative remission rate (%) ([3]; Example 9, Fluorouracil (5-Fu) intraperitoneal injection 125 mg/kg single, CDK inhibitor oral 150 mg/kg single 8 h before, cycle 10 days): 60% | Relative remission rate (%) ([3]; Example 10, Fluorouracil (5-Fu) intraperitoneal injection 125 mg/kg single, CDK inhibitor oral 150 mg/kg single 9 h before, cycle 10 days): 50% | Relative remission rate (%) ([3]; Example 11, Fluorouracil (5-Fu) intraperitoneal injection 125 mg/kg single, CDK inhibitor oral 150 mg/kg single 10 h before, cycle 10 days): 60% | Relative remission rate (%) ([3]; Example 12, Fluorouracil (5-Fu) intraperitoneal injection 125 mg/kg single, CDK inhibitor oral 150 mg/kg single 11 h before, cycle 10 days): 70% | Relative remission rate (%) ([3]; Example 13, Fluorouracil (5-Fu) intraperitoneal injection 125 mg/kg single, CDK inhibitor oral 150 mg/kg single 12 h before, cycle 10 days): 80% | Relative remission rate (%) ([3]; Example 14, Fluorouracil (5-Fu) intraperitoneal injection 125 mg/kg single, CDK inhibitor oral 12.5 mg/kg single 13 h before, cycle 10 days): 40% | Relative remission rate (%) ([3]; Example 15, Fluorouracil (5-Fu) intraperitoneal injection 125 mg/kg single, CDK inhibitor oral 25 mg/kg single 13 h before, cycle 10 days): 80% | Relative remission rate (%) ([3]; Example 16, Fluorouracil (5-Fu) intraperitoneal injection 125 mg/kg single, CDK inhibitor oral 50 mg/kg single 13 h before, cycle 10 days): 60% | Relative remission rate (%) ([3]; Example 17, Fluorouracil (5-Fu) intraperitoneal injection 125 mg/kg single, CDK inhibitor oral 100 mg/kg single 13 h before, cycle 10 days): 80% | Relative remission rate (%) ([3]; Example 18, Fluorouracil (5-Fu) intraperitoneal injection 125 mg/kg single, CDK inhibitor oral 150 mg/kg single 13 h before, cycle 10 days): 80% | Relative remission rate (%) ([3]; Example 19, Fluorouracil (5-Fu) intraperitoneal injection 125 mg/kg single, CDK inhibitor oral 250 mg/kg single 13 h before, cycle 10 days): 60% | Relative remission rate (%) ([3]; Example 20, Fluorouracil (5-Fu) intraperitoneal injection 125 mg/kg single, CDK inhibitor oral 150 mg/kg single 14 h before, cycle 10 days): 70% | Relative remission rate (%) ([3]; Example 21, Fluorouracil (5-Fu) intraperitoneal injection 125 mg/kg single, CDK inhibitor oral 150 mg/kg single 16 h before, cycle 10 days): 60% | Relative remission rate (%) ([3]; Example 22, Fluorouracil (5-Fu) intraperitoneal injection 125 mg/kg single, CDK inhibitor oral 150 mg/kg single 18 h before, cycle 10 days): 60% | Relative remission rate (%) ([3]; Example 23, Fluorouracil (5-Fu) intraperitoneal injection 125 mg/kg single, CDK inhibitor oral 150 mg/kg single 20 h before, cycle 10 days): 50% | Relative remission rate (%) ([3]; Example 24, Fluorouracil (5-Fu) intraperitoneal injection 125 mg/kg single, CDK inhibitor oral 150 mg/kg single 22 h before, cycle 10 days): 40% | Relative remission rate (%) ([3]; Example 25, Fluorouracil (5-Fu) intraperitoneal injection 125 mg/kg single, CDK inhibitor oral 150 mg/kg single 24 h before, cycle 10 days): 40% | Relative remission rate (%) ([3]; Example 26, Fluorouracil (5-Fu) intraperitoneal injection 125 mg/kg single, CDK inhibitor oral 150 mg/kg single 48 h before, cycle 10 days): 0% | Relative remission rate (%) ([3]; Example 44, Fluorouracil (5-Fu) oral administration 250 mg/kg single, CDK inhibitor oral 125 mg/kg single 4 h before, cycle 10 days): 60% | Relative remission rate (%) ([3]; Example 88, Oxaliplatin intravenous injection 17.5 mg/kg single, CDK inhibitor oral 150 mg/kg single 6 h before, cycle 8 days): 50% | Relative remission rate (%) ([3]; Example 129, Irinotecan (CPT-11) intravenous injection 200 mg/kg single, CDK inhibitor oral 200 mg/kg single 14 h before, cycle 7 days): 60% | Relative remission rate (%) ([3]; Example 166, Docetaxel (DTX) intramuscular injection 20 mg/kg single, CDK inhibitor oral 150 mg/kg single 5 h before, cycle 8 days): 80% | Relative remission rate (%) ([3]; Example 228, Etoposide 60 mg/kg and Carboplatin 5 mg/kg intraperitoneal injection single, CDK inhibitor oral 150 mg/kg single, 12 h before, 10 days): 60%

Reference: patent publication US20240293413A1, “COMPOUND AND METHOD FOR TREATING CHEMOTHERAPY-RELATED GASTROINTESTINAL SIDE EFFECTS” (ONQUALITY PHARMACEUTICALS CHINA LTD., priority 2021, published 2024)
